The values that follow come from ChEMBL document CHEMBL6109034, “Discovery of novel tetracyclic quinazolines as multi-KRASinhibitors for the treatment of solid tumors” (Bioorg Med Chem Lett, 2025).

As usually defined, the IC50 is the point on the concentration scale where inhibition reaches its midpoint.

The source made the active and inactive calls. The rule behind the calls is not given here.

For assay [1], the system named is ASPC1. The assay can be described thus: Antiproliferative activity against human ASPC1 cells harbouring KRAS G12D mutant assessed as reduction in cell viability incubated for 72 hrs. Format: functional, cell-based.
Assay [2] relates to SW-620. The experiment in a line: Antiproliferative activity against human SW620 cells harbouring KRAS G12V mutant assessed as inhibition of cell growth incubated for 72 hrs by Luminescence based assay. Format: functional. The following applies: SW-620, 72 h.
Assay [3] has as its target T1, GTPase KRas (Homo sapiens, UniProt P01116, G12D). The assay can be described thus: Inhibition of KRas G12D mutant in human ASPC1 cells assessed as inhibition of ERK phosphorylation at Thr202/Tyr204 residues incubated for 3 hrs by Western blot analysis. The class given is cell-based. A general note: Immunoblotting shows a protein as a band on a membrane.
Assay [4] concerns the target T1, GTPase KRas. The experiment in a line: Inhibition of KRas G12D mutant in human SW620 cells assessed as inhibition of ERK phosphorylation at Thr202/Tyr204 residues incubated for 3 hrs by Western blot analysis. The class given is cell-based.
Assay [5] deals with HT-29. The experiment in a line: Antiproliferative activity against human HT-29 cells harbouring wild-type KRAS assessed as cell growth inhibition by CellTiter-Glo assay. The class given is functional, cell-based. For orientation: Cellular ATP, detected with luciferase, serves as a proxy for viable cell number.
The subject of assay [6] is GTPase KRas (Homo sapiens), P01116 [G12D]. The experiment in a line: Inhibition of KRas G12D mutant in human ASPC1 cells assessed as assessed as downregulation of DUSP4 at 0.05 to 300 nM incubated for 3 hrs by Western blot analysis. The class given is cell-based. The following applies: dose 0.05-300 nM.

As for `N#Cc1c(N)sc2c(F)ccc(-c3c(Cl)c4c5c(nc(OC[C@@]67CCCN6C[C@H](F)C7)nc5c3F)N3CCCOC[C@H]3CO4)c12` (single isomer, unassigned; atropisomer 1), in assay [1] (aspc1), the IC50 came out at 8780 nM.
On to `Nc1nc2c(-c3c(Cl)cc4c(N5CCCOCC5)nc(OC[C@@]56CCCN5C[C@H](F)C6)nc4c3F)ccc(F)c2s1`, for which the IC50 in assay [1] (Homo sapiens, ASPC1, 72 h) is 8240 nM; in assay [2] it was 208 nM.
On to `N#Cc1c(N)sc2c(F)ccc(-c3c(Cl)c4c5c(nc(OC[C@@]67CCCN6C[C@H](F)C7)nc5c3F)N3CCCCCC3CO4)c12` (single isomer, unassigned; atropisomer 2), for which the IC50 in assay [1] (aspc1) is 713 nM; in assay [2], 4.4 nM.
`N#Cc1c(N)sc2c(F)ccc(-c3c(Cl)c4c5c(nc(OC[C@@]67CCCN6C[C@H](F)C7)nc5c3F)N3CCCCC[C@@H]3CO4)c12`: the 50% inhibitory concentration (IC50) in assay [1] (Homo sapiens, ASPC1, 72 h) came to 3250 nM; in assay [2], 347 nM.
Regarding `N#Cc1c(N)sc2c(F)ccc(-c3c(Cl)c4c5c(nc(OC[C@@]67CCCN6C[C@H](F)C7)nc5c3F)N3CCCCCC3CO4)c12` (single isomer, unassigned; atropisomer 1), in assay [1] (aspc1), the IC50 came to 4000 nM.
In the case of `N#Cc1c(N)sc2c(F)ccc(-c3c(Cl)c4c5c(nc(OC[C@@]67CCCN6C[C@H](F)C7)nc5c3F)N3CCCOC[C@H]3CO4)c12` (single isomer, unassigned; atropisomer 2) [listing 1 of 2 here], the half-inhibitory concentration (IC50) was 378 nM in assay [1] (aspc1); 0.6 nM in assay [2]; 0.6 nM in assay [3]; 1 nM in assay [4]; 3230 nM in assay [5].
Consider `Nc1nc2c(-c3c(Cl)c4c5c(nc(OC[C@@]67CCCN6C[C@H](F)C7)nc5c3F)N3CCCCCC3CO4)ccc(F)c2s1` (stereo not given in full), for which the IC50 in assay [1] (Homo sapiens, ASPC1, 72 h) was 1150 nM; in assay [2], 151 nM.
`N#Cc1c(N)sc2c(F)ccc(-c3c(Cl)c4c5c(nc(OC[C@@]67CCCN6C[C@H](F)C7)nc5c3F)N3CCCOC[C@H]3CO4)c12` (single isomer, unassigned; atropisomer 2) [listing 2 of 2 here]: the result in assay [6] was Active.
As to `N#Cc1c(N)sc2c(F)ccc(-c3c(Cl)c4c5c(nc(OC[C@@]67CCCN6C[C@H](F)C7)nc5c3F)N3CCCCC[C@H]3CO4)c12`, the concentration for half-maximal inhibition (IC50) in assay [1] (Homo sapiens, ASPC1, 72 h) amounted to 354 nM; in assay [2], 2.6 nM.
Taken in the same sequence, the figures for `Nc1nc2c(-c3c(Cl)c4c5c(nc(OC[C@@]67CCCN6C[C@H](F)C7)nc5c3F)N3CCCOC[C@H]3CO4)ccc(F)c2s1` were 1920 nM and 22.6 nM.
